The numbers were not newly measured in patent US20130108982A1, “Reshapable Device for Fixation at a Dental Site” (COLLDENT Y.A. LTD., priority 2007, published 2013), which cites them from elsewhere.

Data set [1] relates to bacteria.

`F` [fluoride]: for the setting “acute”, the “acute lethal dose of fluoride (F)” value is 33 mg F/Kg body weight. Also, where the note is “chronic”, the chronic toxicity is reported as 0.1 mg F/Kg.

In the case of `[F][Sn][F]` [stannous fluoride], the antibacterial activity result in data set [1] is listed as “has shown antibacterial activity”.
